Data as given in patent US10091997B2, “Composition for inhibition of insect host sensing” (Vanderbilt University, priority 2010, dated 2018).

Test system: AgORco+AgOR10
Test: whole-cell patch clamp, HEK293 cells expressing AgORco+AgOR10
Assay type: cell-based, Anopheles gambiae
Conditions: AgORco+AgOR10 cells
Protocol: Currents from OR-expressing HEK293 cells were amplified with an Axopatch 200b Amplifier (Axon Instruments) and digitized through a Digidata 1322A (Axon Instruments). Electrophysiological data was recorded and analyzed using pCLAMP 10 (Axon Instruments). Electrodes were fabricated from quartz tubing (Sutter Instruments) and pulled to 4-6 MΩ for whole cell recording. Electrodes were filled with internal solution (120 mM KCl, 30 mM D-glucose, 10 mM HEPES, 2 mM MgCl2, 1.1 mM EGTA, and 0.1 CaCl2 (pH 7.35, 280 mOsm). External (bath) solution contained 130 mM NaCl, 34 mM D-glucose, 10 mM HEPES, 1.5 mM CaCl2, 1.3 mM KH2PO4, and 0.5 MgSO4 (pH 7.35, 300 mOsm). Compounds were diluted in external solution and locally perfused to the recording cell using Perfusion Pencil (Automate Scientific) and controlled by a ValveLink 8.2 controller (Automate Scientific). Whole cell recordings were sampled at 10 kHz and filtered at 5 kHz. Outside-out patches were obtained using 10-15MΩ electrodes pulled from standard glass capillaries (World Precision Instruments) and fire-polished with an MF-830 micro forge (Narishige). Single channel recordings were sampled at 20 kHz. Recordings were reduced to 1 kHz and low-pass filtered at 500 Hz for display and analysis using QuB (SUNY at Buffalo).
To test the hypothesis that VUAA1 directly agonized AgORco, whole-cell patch clamp responses were examined in AgORco+AgOR10 expressing cells as well HEK293 cells stably expressing AgORco alone. […] The VUAA1-dependent currents in AgORco+AgOR10 cells resembled those resulting from application of benzaldehyde, an orthosteric agonist of AgOR10 (FIG. 3C) (Wang, 2010; Carey, 2010). AgORco+AgOR10 cells were more sensitive to VUAA1 than AgORco cells, producing inward currents at −5.0 log M, a concentration at which AgORco had no response. […] To investigate the specificity of VUAA1 agonism, the inventors transiently transfected HEK cells with the AgORco orthologs of Drosophila melanogaster and Heliothis virescens, DmOR83b and HvOR2 respectively.

CCc1ccc(NC(=O)CSc2nnc(-c3cccnc3)n2CC)cc1 [VUAA1]
whole-cell currents (clamped at −60 mV): concentration-dependent inward currents | concentration producing inward currents (whole-cell): −5.0 log M
